We go through 56 molecules from patent publication US11433053B2, “LSD1 inhibitor and preparation method and application thereof” (CSPC ZHONGQI PHARMACEUTICAL TECHNOLOGY (SHIJIAZHUANG) CO., …, priority 2017, dated 2022).

One test deals with human LSD1 (Homo sapiens (Human), UniProt O60341). As to the kind of experiment: Evaluation of enzyme activity: LSD1 fluorescence coupling enzyme assay (HRP/Amplex Red). Type of test: biochemical. To be noted: human LSD1, histone H3(1-21)K4me2 peptide 10 μM, 30 min pre-incubation. As for the experimental part: The purpose of this test is to test the in vitro inhibitory activities of the compounds against LSD1. The enzyme used in this experiment was human LSD1, and the standard substrate was histone H3(1-21)K4me2 peptide (10 μM). HCI-2509 (SP2509) was used as reference compound, and the fluorescence coupling enzyme assay was employed. The production of FAD-dependent H2O2 as a result of demethylase activity of LSD1 was measured by coupling with HRP and Amplex Red. Compounds as well as control compound HCl-2509 were tested in 10-dose IC50 mode with a 3-fold serial dilution in duplicate starting at 10 μm. All compounds were pre-incubated 30 mins with enzyme before added substrate to start reaction. Fluorescence measurement: Ex/Em=535/590 by EnVision.
The test compound's inhibitory activities against LSD11 was classified as: + for IC50≤50 nM; ++ for IC50>50 nM and ≤100 nM; +++ for IC50>100 nM and ≤500 nM, and the results are shown in Table 1.

In the next test the test system is H1417 cells. As to the kind of experiment: Cell proliferation inhibitory activity on H1417 cells (CellTiter-Glo, 10 days). Type of test: cell-based, human. To be noted: Homo sapiens; for IC50: NCI-H1417, 240 h, H1417 cells, 10 days incubation; for Emax: NCI-H1417, H1417 cells, highest percentage inhibition of cell viability, read-out: Maximum inhibition percentage (%). As for the experimental part: Experimental purposes: To test the proliferation inhibitory activities of the test compounds on H1417 cells.
Experimental materials: RPMI 1640 medium, fetal bovine serum, Promega CellTiter-Glo reagent. The H1417 cell line purchased from ATCC. Envision Multi-Label Analyzer (PerkinElmer).
Experimental method: H1417 cells were seeded in a black 384-well plate, 1000 cells per well in […] of cell suspension. The test compounds were diluted 3-fold with Epmotion to the 10th concentration i.e, the compounds were diluted from 10 mmol to […], and a double duplicate well experiment was set. 198 μL medium was added to the middle plate, according to the corresponding position, 2 μL gradient diluted compounds were added to the middle plate. The mixture was mixed evenly and transferred 20 μL per well to the cell plates. The cell plates were incubated in a carbon dioxide incubator for 10 days. 25 μL of Promega CellTiter-Glo reagent per well was added to the cell plate and the mixture was incubated for 10 minutes at room temperature to stabilize the luminescence signal. Readings were performed by PerkinElmer Envision multi-label analyzer.
Data analysis: The original data was converted to the inhibition rate by the equation (Max-Ratio)/(Max-Min)*100%, and the value of IC50 can be obtained by curve fitting with four parameters. (Model 205 in XLFIT5, iDBS)
The growth inhibitory activities of the test compounds on H1417 cells were classified as + for IC50≤100 nM; ++ for IC50>100 nM and ≤500 nM; +++ for IC50>500 nM and ≤1000 nM; the highest percentage inhibition of cell viability was classified as: […]; 90%>B≥70%; 70%>C≥50%.
For orientation: ATP-based viability assays read luminescence as a measure of living cells.

On to `COC(=O)c1ccc(CN2CCC(c3nc(C4(CN[C@H]5CC5c5ccccc5)CC4)no3)CC2)cc1` (single isomer, unassigned) [Example 165], for which the IC50 (in general, the concentration that gives 50% inhibition) on human LSD1 was 0.1 to 0.5 µM.
Same read-out and setting: with `CC(C)(C)n1nnc(C2(CN[C@H]3C[C@@H]3c3ccccc3)CC2)n1` [Example 3] the figure was 0.05 to 0.1 µM.
On the same count and under the same terms, for `CN(C)CC1(CN[C@H]2C[C@@H]2c2ccccc2)CC1` [Example 5] the value was 0.05 to 0.1 µM; for `CCN(CC)CC1(CN[C@H]2CC2c2ccccc2)CC1` (some centres unmarked) [Example 7], 0.1 to 0.5 µM.
Same read-out and setting: with `Fc1ccccc1CNCC1(CN[C@H]2CC2c2ccccc2)CC1` (some centres unmarked) [Example 10] the figure was ≤ 0.05 µM; with `c1ccc(C2C[C@@H]2NCC2(CNCc3ccc[nH]3)CC2)cc1` (some centres unmarked) [Example 11], ≤ 0.05 µM; with `c1ccc([C@H]2C[C@@H]2NCC2(CNCc3cnc[nH]3)CC2)cc1` [Example 12], 0.05 to 0.1 µM.
For `c1ccc(C2C[C@@H]2NCC2(CNCC3CCNC3)CC2)cc1` (some centres unmarked) [Example 13], the IC50 against human LSD1 is ≤ 0.05 µM.
In the case of `CCn1ncnc1CNCC1(CN[C@H]2C[C@@H]2c2ccccc2)CC1` [Example 14], at human LSD1, the IC50 was 0.1 to 0.5 µM.
Still for that read-out and setting: with `FC(F)(F)c1ccc(CNCC2(CN[C@H]3C[C@@H]3c3ccccc3)CC2)cn1` [Example 15] the figure was 0.05 to 0.1 µM.
On the same count and under the same terms, with `c1ccc([C@H]2C[C@@H]2NCC2(CNCc3nccs3)CC2)cc1` [Example 16] the figure was 0.1 to 0.5 µM; with `c1ccc([C@H]2C[C@@H]2NCC2(CNCc3cnc4n3CCC4)CC2)cc1` [Example 17], 0.05 to 0.1 µM; with `Clc1ccc2nc(C3(CN[C@H]4CC4c4ccccc4)CC3)oc2c1` (some centres unmarked) [Example 46], ≤ 0.05 µM.
With `Clc1ccc2oc(C3(CN[C@H]4CC4c4ccccc4)CC3)nc2c1` (some centres unmarked) [Example 47], in the test with H1417 cells, the IC50 is 0.1 to 0.5 µM and the Emax lay in the range of 50 to 70%.
With `Clc1ccc2oc(C3(CN[C@H]4C[C@@H]4c4ccccc4)CC3)nc2c1` [Example 47], on human LSD1, the half-maximal inhibitory concentration (IC50) was in the range of 0.05 to 0.1 µM.
Regarding `N#Cc1ccc(CNC2(CN[C@H]3CC3c3ccccc3)CCC2)cc1` (some centres unmarked) [Example 48], the IC50 at human LSD1 was ≤ 0.05 µM.
Turning to `c1ccc(C2C[C@@H]2NCC2(CN3CCc4ccncc4C3)CC2)cc1` (some centres unmarked) [Example 49], in the test on H1417 cells, the IC50 lay within 0.5 to 1 µM and the Emax is 90 to 100%.
The corresponding values for `FC(F)(F)c1ccc2c(c1)CN(CC1(CN[C@H]3CC3c3ccccc3)CC1)CC2` (some centres unmarked) [Example 51] are 0.1 to 0.5 µM and 70 to 90%.
On the same counts, the results for `O=C(O)c1ccc2c(c1)CN(CC1(CN[C@H]3CC3c3ccccc3)CC1)CC2` (some centres unmarked) [Example 53] are 0.5 to 1 µM and 90 to 100%.
The corresponding values for `O=C(O)C1CCN(CC2(CN[C@H]3CC3c3ccccc3)CC2)CC1` (some centres unmarked) [Example 54] are 0.5 to 1 µM and 50 to 70%.
In the case of `FC(F)(F)c1ccc2c(c1)CN(CC1(CN[C@H]3CC3c3ccccc3)CC1)C2` (some centres unmarked) [Example 55], in the test on H1417 cells, the IC50 lay in the range of 0.1 to 0.5 µM and the Emax lay within 70 to 90%.
The corresponding values for `O=C(O)c1ccc(C2CCN(CC3(CN[C@H]4CC4c4ccccc4)CC3)CC2)cc1` (some centres unmarked) [Example 56] are 0.5 to 1 µM and 50 to 70%.
On the same counts, the results for `c1ccc(C2C[C@@H]2NCC2(CN3CCc4ccccc4CC3)CC2)cc1` (some centres unmarked) [Example 58] are 0.1 to 0.5 µM and 70 to 90%.
Regarding `c1ccc(C2C[C@@H]2NCC2(CN3CCCCc4ccccc43)CC2)cc1` (some centres unmarked) [Example 60], in the test with H1417 cells, the concentration for half-maximal inhibition (IC50) lay in the range of 0.5 to 1 µM and the Emax was 50 to 70%.
For `c1ccc(C2C[C@@H]2NCC2(CN3Cc4ccncc4C3)CC2)cc1` (some centres unmarked) [Example 61], in the test on H1417 cells, the IC50 was 0.5 to 1 µM and the Emax was 50 to 70%.
Turning to `Fc1ccc(-c2nc(C3(CN[C@H]4CC4c4ccccc4)CC3)no2)cc1` (some centres unmarked) [Example 63], the half-maximal inhibitory concentration (IC50) on human LSD1 was ≤ 0.05 µM.
As for `O=C(O)C1CCC(c2nc(C3(CN[C@H]4CC4c4ccccc4)CC3)no2)CC1` (some centres unmarked) [Example 67], in the test with H1417 cells, the 50% inhibitory concentration (IC50) was in the range of 0.1 to 0.5 µM and the Emax is 50 to 70%.
For the molecule `c1ccc(C2C[C@@H]2NCC2(c3noc4ccccc34)CC2)cc1` (some centres unmarked) [Example 71], the half-maximal inhibitory concentration (IC50) against human LSD1 was ≤ 0.05 µM.
On the same count and under the same terms, with `c1ccc(C2C[C@@H]2NCC2(c3noc4ccccc34)CCC2)cc1` (some centres unmarked) [Example 72] the figure was ≤ 0.05 µM.
With `c1ccc(C2C[C@@H]2NCC2(c3nc4ccccc4o3)CC2)cc1` (some centres unmarked) [Example 76], in the test with H1417 cells, the half-maximal inhibitory concentration (IC50) fell in the range of 0.1 to 0.5 µM and the Emax fell in the range of 50 to 70%.
In turn, `c1ccc([C@H]2C[C@@H]2NCC2(c3nc4ccccc4o3)CC2)cc1` [Example 76] returned an IC50 against human LSD1 of 0.05 to 0.1 µM.
Turning to `c1ccc(C2C[C@@H]2NCC2(CN3CCCC3)CC2)cc1` (some centres unmarked) [Example 77], in the test on H1417 cells, the concentration for half-maximal inhibition (IC50) was ≤ 0.1 µM and the Emax lay in the range of 70 to 90%.
The corresponding values for `FC(F)(F)C1CCN(CC2(CN[C@H]3CC3c3ccccc3)CC2)CC1` (some centres unmarked) [Example 80] are 0.1 to 0.5 µM and 50 to 70%.
On the same counts, the results for `N#CC1CCN(CC2(CN[C@H]3CC3c3ccccc3)CC2)CC1` (some centres unmarked) [Example 81] are ≤ 0.1 µM and 50 to 70%.
As for `O=C(O)c1ccc(CN2CCC(c3nc(C4(CN[C@H]5CC5c5ccccc5)CC4)no3)CC2)cc1` (some centres unmarked) [Example 82], in the test on H1417 cells, the IC50 is 0.1 to 0.5 µM and the Emax lay in the range of 50 to 70%.
`O=C(O)c1ccc(NCC2(CN[C@H]3C[C@@H]3c3ccccc3)CCC2)nc1` [Example 84]: the half-inhibitory concentration (IC50) at human LSD1 was 0.1 to 0.5 µM.
Same read-out and setting: with `FC1CC(CN[C@H]2CC2c2ccccc2)(c2cccnc2)C1` (some centres unmarked) [Example 85] the figure was ≤ 0.05 µM; with `OC1CC(CN[C@H]2CC2c2ccccc2)(c2cccnc2)C1` (some centres unmarked) [Example 86], ≤ 0.05 µM.
The same measure, in the same setting: for `COc1ccccc1-c1nc(C2(CN[C@H]3CC3c3ccccc3)CCC2)no1` (some centres unmarked) [Example 90] the value was ≤ 0.05 µM; for `N#Cc1ccccc1-c1nc(C2(CN[C@H]3CC3c3ccccc3)CCC2)no1` (some centres unmarked) [Example 91], ≤ 0.05 µM; for `N#Cc1cccc(-c2nc(C3(CN[C@H]4CC4c4ccccc4)CCC3)no2)c1` (some centres unmarked) [Example 92], ≤ 0.05 µM.
Still for that read-out and setting: for `FC1(F)Oc2ccc(-c3nc(C4(CN[C@H]5CC5c5ccccc5)CCC4)no3)cc2O1` (some centres unmarked) [Example 93] the value was ≤ 0.05 µM; for `COc1ccc2nc(-c3nc(C4(CN[C@H]5CC5c5ccccc5)CCC4)no3)sc2c1` (some centres unmarked) [Example 94], ≤ 0.05 µM.
As to `Clc1ccc(-n2cc(C3(CN[C@H]4CC4c4ccccc4)CC3)nn2)cc1` (some centres unmarked) [Example 96], in the test with H1417 cells, the 50% inhibitory concentration (IC50) is 0.5 to 1 µM and the Emax was in the range of 50 to 70%.
For `N#Cc1ccc(C(=O)NC2(CN[C@H]3CC3c3ccccc3)CCC2)cc1` (some centres unmarked) [Example 97], on human LSD1, the concentration for half-maximal inhibition (IC50) is ≤ 0.05 µM.
Take `CC1CCN(CC2(CN[C@H]3CC3c3ccccc3)CC2)C1` (some centres unmarked) [Example 98]: in the test on H1417 cells, the IC50 fell in the range of 0.1 to 0.5 µM and the Emax is 50 to 70%.
In turn, `CC1CCN(CC2(CN[C@H]3C[C@@H]3c3ccccc3)CC2)C1` (some centres unmarked) [Example 98] yielded an IC50 at human LSD1 of 0.05 to 0.1 µM.
Consider `O=C(O)c1ccc2c(c1)CCN(CC1(CN[C@H]3CC3c3ccccc3)CC1)C2` (some centres unmarked) [Example 101], for which, in the test on H1417 cells, the IC50 was 0.5 to 1 µM and the Emax lay in the range of 50 to 70%.
On to `O=C(O)c1ccc(N2CCC(c3nc(C4(CN[C@H]5CC5c5ccccc5)CC4)no3)CC2)cc1` (some centres unmarked) [Example 103], for which, in the test with H1417 cells, the IC50 fell in the range of 0.5 to 1 µM and the Emax lay within 50 to 70%.
The corresponding values for `CC(=O)N1CCC(c2nc(C3(CN[C@H]4CC4c4ccccc4)CC3)no2)CC1` (some centres unmarked) [Example 105] are 0.1 to 0.5 µM and 70 to 90%.
With `CS(=O)(=O)n1cc2c(n1)CN(CC1(CN[C@H]3CC3c3ccccc3)CC1)C2` (some centres unmarked) [Example 106], in the test with H1417 cells, the 50% inhibitory concentration (IC50) was 0.5 to 1 µM and the Emax is 50 to 70%.
On the same counts, the results for `CN(C)[C@H]1CC[C@H](c2nc(C3(CN[C@H]4CC4c4ccccc4)CC3)no2)CC1` (some centres unmarked) [Example 108] are 0.5 to 1 µM and 70 to 90%.
For `CC1(C)CCN(CC2(CN[C@H]3CC3c3ccccc3)CC2)C1` (some centres unmarked) [Example 202], in the test with H1417 cells, the half-maximal inhibitory concentration (IC50) was 0.1 to 0.5 µM and the Emax lay in the range of 70 to 90%.
As for `c1ccc(C2C[C@@H]2NCC2(CN3CCC3)CC2)cc1` (some centres unmarked) [Example 211], in the test on H1417 cells, the IC50 was 0.1 to 0.5 µM and the Emax was 50 to 70%.
On the same counts, the results for `C[C@H]1CCCN1CC1(CN[C@H]2CC2c2ccccc2)CC1` (some centres unmarked) [Example 212] are 0.1 to 0.5 µM and 50 to 70%.
On the same counts, the results for `CN1CCC(c2nc(C3(CN[C@H]4CC4c4ccccc4)CC3)no2)CC1=O` (some centres unmarked) [Example 218] are 0.1 to 0.5 µM and 70 to 90%.
